# Laboratory results: ChEMBL document CHEMBL5375990, “Optimization of Pharmacokinetic and In Vitro Safety Profile of a Series of Pyridine Diamide Indirect AMPK Activators” (J Med Chem, 2023)
# Active and inactive are the calls of the source. No cut-off for these calls is given here.
# Key:
# [1] = target: 5'-AMP-activated protein kinase; experiment: Activation of AMPK in mouse C2C12 cells incubated for 2 hrs; format: cell-based
# [2] = Microsomal stability in rat liver microsome assessed as half life; format: ADME; conditions: liver microsomes
# [3] = Clearance in rat; format: ADME; conditions: in vivo
# hERG (KCNH2) = hERG (KCNH2) (Homo sapiens, UniProt Q12809); experiment: Inhibition of hERG at 10 uM relative to control; format: toxicity
# [4] = Activation of AMPK in human HepG2 cells incubated for 2 hrs; format: cell-based; conditions: HepG2, 2 h
# HepG2 = experiment: Inhibition of mitochondrial function in human HepG2 cells assessed as reduction in ATP production; format: functional, cell-based
# [5] = Microsomal stability in human liver microsome assessed as half life; format: ADME, microsomes; conditions: for half-life: liver microsomes
# Cytochrome P450 3A4 [6] = target: T1, Cytochrome P450 3A4 (Homo sapiens, UniProt P08684); experiment: Inhibition of CYP3A4 (unknown origin); format: ADME
# Cytochrome P450 3A4 [7] = target: T1, Cytochrome P450 3A4; experiment: Inhibition of CYP3A4 (unknown origin) in presence of NADPH; format: ADME
# [8] = target: Voltage-gated inwardly rectifying potassium channel KCNH2 (Homo sapiens, UniProt Q12809); experiment: Inhibition of hERG; format: toxicity
# [9] = Dissociation constant, pKa of compound; format: physicochemical
# [10] = Volume of distribution at steady state in rat at 5 mg/kg, po or 1 mg/kg, iv measured upto 10 hrs; format: ADME, organism-based; conditions: in vivo
# [11] = Half life in rat at 5 mg/kg, po or 1 mg/kg, iv measured upto 10 hrs; format: ADME, organism-based; conditions: in vivo
# [12] = Drug concentration in C57BL/6J mouse plasma at 10 mg/kg, po measured at 30 mins; format: ADME, organism-based
# [13] = AUC in rat at 5 mg/kg, po measured upto 10 hrs; format: ADME, organism-based; design: time < 10 hrs, dose 5 mg/kg, route po; conditions: in vivo
# Mus musculus [14] = experiment: Antidiabetic activity against po dosed db/db mouse model of type 2 diabetes assessed as reduction in blood glucose level administered for 15 days by OGTT test; format: functional, organism-based; conditions: dose 10-15 mg/kg, time 15.0 day
# Mus musculus [15] = experiment: Antidiabetic activity against po dosed db/db mouse model of type 2 diabetes assessed as improvement in glucose handling administered for 15 days and measured on day 13 by OGTT test; format: functional, organism-based; conditions: dose 10-15 mg/kg, time 13.0 day
# NCI-H1299 = experiment: Cytotoxicity against human NCI-H1299 cells assessed as reduction in cell growth; format: functional, cell-based
# Mus musculus [16] = experiment: In vivo activation of AMPK in C57BL/6J mouse assessed as increase ACC substrate level in liver at 10 mg/kg, po measured for 30 mins by Western blot analysis; format: functional, organism-based
# Mus musculus [17] = experiment: Antidiabetic activity against db/db mouse model of type 2 diabetes assessed as reduction in blood glucose AUC at 15 mg/kg, po administered for 15 days and measured on day 13 by OGTT test; format: functional, organism-based; conditions: time 13.0 day
# Mus musculus [18] = experiment: In vivo activation of AMPK in C57BL/6J mouse assessed as increase in AMPK phosphorylation in liver at 10 mg/kg, po measured for 30 mins by Western blot analysis; format: functional, organism-based
# A549 = experiment: Cytotoxicity against human A549 cells assessed as reduction in cell growth; format: functional, cell-based
# Mus musculus [19] = experiment: Antidiabetic activity against po dosed db/db mouse model of type 2 diabetes assessed as reduction in insulin level administered for 15 days by OGTT test; format: functional, organism-based; conditions: dose 10-15 mg/kg, time 15.0 day
# [20] = Oral bioavailability in rat at 5 mg/kg measured upto 10 hrs; format: ADME, organism-based; conditions: in vivo
# T1 sequence (P08684 whole entry): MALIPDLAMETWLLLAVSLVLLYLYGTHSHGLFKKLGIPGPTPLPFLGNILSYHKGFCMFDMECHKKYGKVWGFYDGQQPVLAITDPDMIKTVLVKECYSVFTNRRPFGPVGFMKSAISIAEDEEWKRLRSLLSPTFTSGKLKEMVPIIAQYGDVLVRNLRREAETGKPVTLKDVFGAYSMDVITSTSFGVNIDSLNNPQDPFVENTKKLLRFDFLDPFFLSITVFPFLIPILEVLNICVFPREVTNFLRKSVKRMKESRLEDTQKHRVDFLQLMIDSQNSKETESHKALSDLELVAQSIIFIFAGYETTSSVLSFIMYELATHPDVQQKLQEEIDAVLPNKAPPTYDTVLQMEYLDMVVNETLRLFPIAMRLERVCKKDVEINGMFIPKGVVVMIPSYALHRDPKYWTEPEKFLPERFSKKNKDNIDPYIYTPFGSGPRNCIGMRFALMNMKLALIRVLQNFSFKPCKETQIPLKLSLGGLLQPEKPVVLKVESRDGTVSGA
# Chain of hERG (KCNH2) (Q12809 whole entry): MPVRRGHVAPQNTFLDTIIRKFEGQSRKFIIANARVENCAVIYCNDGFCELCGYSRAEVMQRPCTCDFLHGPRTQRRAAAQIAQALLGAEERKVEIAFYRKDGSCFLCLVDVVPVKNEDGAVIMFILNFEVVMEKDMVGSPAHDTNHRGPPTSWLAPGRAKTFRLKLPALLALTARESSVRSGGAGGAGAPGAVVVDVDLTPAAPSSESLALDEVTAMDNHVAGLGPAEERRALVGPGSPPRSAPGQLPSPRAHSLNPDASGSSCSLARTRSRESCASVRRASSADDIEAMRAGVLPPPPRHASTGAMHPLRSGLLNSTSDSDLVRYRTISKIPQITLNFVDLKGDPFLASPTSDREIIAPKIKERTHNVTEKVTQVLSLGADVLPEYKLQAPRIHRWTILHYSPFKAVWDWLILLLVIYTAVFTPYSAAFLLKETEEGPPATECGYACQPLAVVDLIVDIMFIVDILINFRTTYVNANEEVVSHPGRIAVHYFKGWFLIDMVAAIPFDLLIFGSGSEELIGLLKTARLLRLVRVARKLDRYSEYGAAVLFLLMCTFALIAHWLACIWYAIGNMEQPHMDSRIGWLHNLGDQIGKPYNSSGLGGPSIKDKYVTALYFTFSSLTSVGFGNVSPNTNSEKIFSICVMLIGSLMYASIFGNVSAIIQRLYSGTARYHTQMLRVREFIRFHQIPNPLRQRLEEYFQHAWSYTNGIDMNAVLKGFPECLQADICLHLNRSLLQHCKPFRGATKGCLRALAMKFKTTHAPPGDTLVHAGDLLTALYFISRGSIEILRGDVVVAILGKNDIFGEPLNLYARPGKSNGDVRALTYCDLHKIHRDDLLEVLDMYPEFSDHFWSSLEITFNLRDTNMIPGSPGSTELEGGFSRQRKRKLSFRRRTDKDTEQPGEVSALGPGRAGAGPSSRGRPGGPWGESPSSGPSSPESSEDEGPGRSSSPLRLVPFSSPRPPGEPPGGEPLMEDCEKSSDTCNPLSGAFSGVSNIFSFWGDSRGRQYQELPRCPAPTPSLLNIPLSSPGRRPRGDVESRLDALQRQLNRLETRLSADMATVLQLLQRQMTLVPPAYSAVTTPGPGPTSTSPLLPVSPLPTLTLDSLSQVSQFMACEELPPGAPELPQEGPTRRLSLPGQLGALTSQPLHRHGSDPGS
# Chain of Voltage-gated inwardly rectifying potassium channel KCNH2 (Q12809 whole entry): as above
Structure (SMILES),EC50 [1] [nM],half-life [2] [h],clearance [3] [mL/min/kg],inhibition at 10 µM (hERG (KCNH2)) [%],EC50 [4] [nM],IC50 (HepG2) [nM],half-life [5] [h],IC50 (Cytochrome P450 3A4 [6]) [nM],IC50 (Cytochrome P450 3A4 [7]) [nM],further results
N#Cc1ccc(CN2CC[C@H](NC(=O)c3ccc(C(=O)N4CCC(C(=O)c5ccc(-n6cccn6)cc5)CC4)nc3)[C@@H](F)C2)cc1,87,1.75,19,98.4,29,887,,,,Stability ([5]; microsomes): Stable
N#Cc1ccc(CN2CC[C@H](NC(=O)c3ccc(C(=O)N4CCC(C(=O)c5ccc(N6CCOCC6)cc5)CC4)nc3)[C@@H](F)C2)cc1,217,1.22,,,70,2690,2.63,,,
COc1ccc(C(=O)C2CCN(C(=O)c3ccc(C(=O)NC4CCN(Cc5ccc(C#N)cc5)CC4(C)C)cn3)CC2)cc1 (centres undefined),598,,40,,32,390,,,,
COc1ccc(C(=O)C2CCN(C(=O)c3ccc(C(=O)N[C@@H]4CCN(Cc5ccc(C#N)cc5)C[C@@H]4C(F)(F)F)cn3)CC2)cc1,143,,62,,17,466,,,,
COc1ccc(C(=O)C2CCN(C(=O)c3ccc(C(=O)N[C@@H]4CCN(Cc5ccc(C#N)cc5)C[C@@H]4C)cn3)CC2)cc1,82,0.15,,46.9,22,941,0.383,10000,900,
COc1ccc(C(=O)C2CCN(C(=O)c3ccc(C(=O)N(C)C4CCN(Cc5ccc(C#N)cc5)CC4)cn3)CC2)cc1,,,74,,21,28,,,,
COc1ccc(C(=O)C2CCN(C(=O)c3ccc(C(=O)N[C@H]4CCN(Cc5ccc(C#N)cc5)[C@H](C(F)(F)F)C4)cn3)CC2)cc1,,,,,464,,,,,
COc1ccc(C(=O)C2CCN(C(=O)c3cc(C)c(C(=O)NC4CCN(Cc5ccc(C#N)cc5)CC4)cn3)CC2)cc1,110,0.7,38,59.8,22,1460,1.72,> 10000,> 10000,
COc1ccc(C(=O)C2CCN(C(=O)c3ccc(C(=O)NC4CCN(Cc5ccc(C#N)cc5)CC4)cn3)CC2)cc1,137,,150,,31,2820,,> 10000,> 10000,IC50 [8]: 4700 nM; pKa [9]: 7.4
COc1ccc(C(=O)C2CCN(C(=O)c3cc(C(F)(F)F)c(C(=O)NC4CCN(Cc5ccc(C#N)cc5)CC4)cn3)CC2)cc1,28,0.733,35,,10,456,1.48,> 10000,2800,
COCCN(C(=O)c1ccc(C(=O)N2CCC(C(=O)c3ccc(OC)cc3)CC2)nc1)C1CCN(Cc2ccc(C#N)cc2)CC1,654,,,26.5,78,1470,,,,
COc1ccc(CN2CCC(NC(=O)c3cnc(C(=O)N4CCC(C(=O)c5ccc(OC)cc5)CC4)cc3C)CC2)cc1,84,0.917,40,62.5,25,3370,4.72,,,
COc1ccc(C(=O)C2CCN(C(=O)c3ccc(C(=O)N[C@@H]4CCN(Cc5ccc(C#N)cc5)C[C@@H]4F)cn3)CC2)cc1,193,4.95,33,67.4,47,800,8.23,> 10000,> 10000,pKa [9]: 4.9
COc1ccc(C(=O)C2CCN(C(=O)c3ccc(C(=O)N[C@H]4CCN(Cc5ccc(C#N)cc5)C[C@@H]4C)cn3)CC2)cc1,236,,145,,65,983,,,,
COc1ccc(C(=O)C2CCN(C(=O)c3cc(F)c(C(=O)NC4CCN(Cc5ccc(C#N)cc5)CC4)cn3)CC2)cc1,9,,,,1,31,,,,
COc1ccc(C(=O)C2CCN(C(=O)c3ccc(C(=O)N[C@H]4CCN(Cc5ccc(C#N)cc5)C[C@@H]4F)cn3)CC2)cc1 (relative stereo),161,1.47,17,69.2,62,1170,1.9,> 10000,> 10000,Vdss [10]: 2.2 L/kg; half-life [11]: 3.1 h; concentration at 0.5 h [12]: 638 ng/mL; AUC at 10 h [13]: 2350 ng·h/mL; Activity (Mus musculus [14]): Dose-Dependent Effect; Activity (Mus musculus [15]): Dose-Dependent Effect; IC50 (NCI-H1299): > 20000 nM; Activity (Mus musculus [16]): Active; Activity (Mus musculus [17]): Active; Activity (Mus musculus [18]): Active; IC50 (A549): > 20000 nM; Activity (Mus musculus [19]): Dose-Dependent Effect; pKa [9]: 4.9; bioavailability [20]: 55%
COc1ccc(C(=O)C2CCN(C(=O)c3cc(C)c(C(=O)NC4CCN(Cc5ccc(OC)c(F)c5)CC4)cn3)CC2)cc1,27,0.9,33,58.4,14,976,1.12,,,
COc1ccc(C(=O)C2CCN(C(=O)c3ccc(C(=O)NC4CCN(Cc5ccc(C#N)cc5)CC4(F)F)cn3)CC2)cc1 (centres undefined),50,2.48,,65,28,256,1.23,> 10000,> 10000,pKa [9]: 2.5
